From US11753408B2, “Compounds and method for blocking transmission of malarial parasite” (The United States of America, as represented by the …, priority 2016, dated 2023)
Where two headings read alike, the source gives them in different places.

Key:
[1] = system: Asexual parasites of P. falciparum strain 3D7; assay: In vitro drug activity on asexual parasites (SYBR Green assay); assay type: cell-based, Plasmodium falciparum
Protocol: Cell culture. Asexual parasites of P. falciparum strain 3D7 were cultured as described previously [Trager W, et al., Journal of Parasitology 2005, 91: 484-486], Stage III-V gametocytes were selected and enriched with 3-day treatment with 50 mM N-acetylglucosamine (NAG) and the following Percoll density gradient centrifugation after gametocyte production [Tanaka T Q, et al., Molecular and Biochemical Parasitology, 2011, 111: 160-163], Gametocytes of HB3 and Dd2 strains were produced and then set up for assay in a similar process. HepG2 cells (ATCC, cat. no. 77400) were cultured in 175-cm^2 tissue culture flasks with 30 ml growth medium at 37° C. in a 5% CO2 humidified atmosphere. Growth medium was made with Dulbecco's Modified Eagle Medium with 10% fetal bovine serum (FBS). Growth medium was replaced every other day and cells were passed at 75% confluence.
Asexual parasites of P. falciparum strain 3D7 were cultured as described previously (Trager, W. et al., J. Parasitol. 2005, 91(3): 484-486). Drug activity on asexual stage parasites was tested using a SYBR Green assay as described previously (Eastman, R. T. et al., Antimicrob. Agents Chemother. 2013, 57(1): 425-435; Smilkstein, M. et al., Antimicrob. Agents Chemother. 2004, 48(5): 1803-1806). Briefly, parasites were diluted to 0.5% parasitemia in complete culture medium with 2% hematocrit and drugs diluted in DMSO (≤0.5%) and were loaded into a 96-well plate (200 μl/well). No drug and RBC alone wells were included as positive and background controls, respectively, and each testing condition was examined in duplicated. After 72 h incubation under the standard culture condition and a freeze-thaw lysis step at −80° C. and room temperature, 100 μl/well of lysis buffer containing SYBR Green I was added to the parasite culture and incubated for 30 min at room temperature. The fluorescence of each well was measured at 520 nm following excitation at 490 nm using a FLUOstar Optima™ microplate reader (BMG Labtech).

PAMPA permeability = assay type: in vitro ADME
[2] = Microsomal stability (rat); assay type: in vitro ADME; settings: rat microsomes
Solubility at pH 7.4 = assay type: physicochemical
mTOR = mTOR (Homo sapiens, UniProt P42345); assay: mTOR activity (no method described); assay type: biochemical
[3] = P. falciparum 3D7 asexual parasites, 72 h, SYBR Green

EC50 [1, 3] [nM] | PAMPA Permeability (×10^6 cm/s) (PAMPA permeability) | Microsomal Stability (rat) T1/2 [2] [min] | Sol @ pH 7.4 (ug/mL) (Solubility at pH 7.4) | EC50 [1] [nM] | mTOR (mTOR) [µM] | Sol @ pH 7.4 (Solubility at pH 7.4) [ug/mL] | PAMPA Permeability (PAMPA permeability) [×10⁻⁶ cm/s] | SMILES
8.49 | <1 ×10^6 cm/s | >30 | 2.3 |  |  |  |  | CS(=O)(=O)c1ccc(-n2c(=O)ccc3cnc4ccc(-c5ccc(N)nc5)cc4c32)cc1Cl [Compound 61]
 |  | >30 |  | 206 | 50 | <1 |  | O=C(NC1CC1)c1ccc(-n2c(=O)ccc3cnc4ccc(-c5ccc(F)cc5)cc4c32)cn1 [Compound 301]
 | 4 ×10^6 cm/s | >30 | 44.9 |  |  |  |  | CC(N)c1ccc(-c2ccc3ncc4ccc(=O)n(-c5ccc6c(c5)CNC6=O)c4c3c2)cc1 (stereo not drawn) [Compound 381]
20.9 | <2.5 ×10^6 cm/s | >30 | 13.4 |  |  |  |  | NCCCN1Cc2cc(-n3c(=O)ccc4cnc5ccc(-c6ccc(Cl)cc6)cc5c43)ccc2C1=O [Compound 343]
 |  | 2.8 |  | 58.3 | 3.013 | 0 |  | CCN(CC)CCCNC(=O)c1ccc(-n2c(=O)ccc3cnc4ccc(-c5ccc(Cl)cc5)cc4c32)cc1 [Compound 266]
 |  |  |  | 46000 | 100 | >74 | < 1 | Cc1cc(C(=O)NC2CC2)ccc1-n1c(=O)ccc2cnc3ccc(-c4ccc(C5(N)CC5)cc4)cc3c21 [Compound 224]
188 | 6.5 ×10^6 cm/s | >30 | 5.9 |  |  |  |  | CS(=O)(=O)c1ccc(-n2c(=O)ccc3cnc4ccc(-c5ccc(C6(N)CC6)cc5)cc4c32)cc1 [Compound 36]
 |  | 12 |  | 16.4 | 1.595 | <1 |  | O=C(c1ccc(-n2c(=O)ccc3cnc4ccc(-c5ccc(Cl)cc5)cc4c32)cc1)N1CCC(O)CC1 [Compound 302]
 |  | 2.1 |  | 62.4 | 5.024 | 0 |  | O=C(NCCCN1CCCCC1)c1ccc(-n2c(=O)ccc3cnc4ccc(-c5ccc(Cl)cc5)cc4c32)cc1 [Compound 260]
 |  | 2.7 |  | 14500 | 100 | <1 |  | O=C(c1ccc(-n2c(=O)ccc3c(Cl)nc4ccc(-c5ccc(Cl)cc5)cc4c32)cc1)N1CCOCC1 [Compound 210]
20.1 | 148.4 ×10^6 cm/s | 31.3 | 1.2 |  |  |  |  | Cc1cc(S(C)(=O)=O)ccc1-n1c(=O)ccc2cnc3ccc(-c4ccc(N)nc4)cc3c21 [Compound 70]
59.4 | <1 ×10^6 cm/s | 17.1 | <1 |  |  |  |  | Cc1cc(S(C)(=O)=O)ccc1-n1c(=O)ccc2cnc3ccc(-c4ccc(Cl)cc4)cc3c21 [Compound 34]
 |  | >30 |  | 6.45 | 0.2376 | 0.7 |  | O=C(NO)c1ccc(-n2c(=O)ccc3cnc4ccc(-c5ccc(Cl)cc5)cc4c32)cc1 [Compound 303]
 |  | 24.4 |  | 34.3 | 2.541 | 0 |  | CN(C)CCCNC(=O)c1ccc(-n2c(=O)ccc3cnc4ccc(-c5ccc(Cl)cc5)cc4c32)cc1 [Compound 258]
1940 | 828.3 ×10^6 cm/s | >30 | >73 |  |  |  |  | Cc1cc(S(C)(=O)=O)ccc1-n1c(=O)ccc2cnc3ccc(-c4ccc(CN(C)C)cc4)cc3c21 [Compound 69]
 |  | 10.6 |  | 329 | 23.38 | 51.2 |  | COc1cc(C(=O)NCCN2CCCC2)ccc1-n1c(=O)ccc2cnc3ccc(-c4ccc(Cl)cc4)cc3c21 [Compound 248]
18800 | 343.6 ×10^6 cm/s |  | >72.0 |  |  |  |  | CN(C)Cc1ccc(-c2ccc3ncc4ccc(=O)n(-c5ccc6c(c5)C(=O)N(C)C6=O)c4c3c2)cc1 [Compound 352]

EC50 [1, 3] [nM] | PAMPA Permeability (×10^6 cm/s) (PAMPA permeability) | Microsomal Stability (rat) T1/2 [2] [min] | Sol @ pH 7.4 (ug/mL) (Solubility at pH 7.4) | EC50 [1] [nM] | mTOR (mTOR) [µM] | Sol @ pH 7.4 (Solubility at pH 7.4) [ug/mL] | PAMPA Permeability (PAMPA permeability) [×10⁻⁶ cm/s] | SMILES
131 | 148.7 ×10^6 cm/s | >30 | 15.7 |  |  |  |  | CN(C)CCc1ccc(-c2ccc3ncc4ccc(=O)n(-c5ccc(S(C)(=O)=O)cc5)c4c3c2)cc1 [Compound 68]
 |  | 4.5 |  | 56.6 | 1.321 | 0 |  | CN1CCN(CCNC(=O)c2ccc(-n3c(=O)ccc4cnc5ccc(-c6ccc(Cl)cc6)cc5c43)cc2)CC1 [Compound 264]
4580 | 75.9 ×10^6 cm/s | >30 | 2.7 |  |  |  |  | CC(C)(C)OC(=O)CN1Cc2cc(-n3c(=O)ccc4cnc5ccc(-c6ccc(Cl)cc6)cc5c43)ccc2C1=O [Compound 364]
75.8 | 35 ×10^6 cm/s | >30 | 4.3 |  |  |  |  | CS(=O)(=O)c1ccc(-n2c(=O)ccc3cnc4ccc(-c5ccc(Cl)cc5)cc4c32)cc1CN1CCNCC1 [Compound 35]
310 | <10.7 ×10^6 cm/s | >30 | 2.6 |  |  |  |  | O=C1NCc2cc(-n3c(=O)ccc4cnc5ccc(-c6ccc(OC7CCNCC7)cc6)cc5c43)ccc21 [Compound 380]
 |  | 2 |  | 211 | 4.985 | 0 |  | O=C(NCCN1CCOCC1)c1ccc(-n2c(=O)ccc3cnc4ccc(-c5ccc(F)cc5)cc4c32)cc1 [Compound 268]
 |  | 4.3 |  | 214 | 5.399 | 0 |  | CN1CCN(CCCNC(=O)c2ccc(-n3c(=O)ccc4cnc5ccc(-c6ccc(Cl)cc6)cc5c43)cc2)CC1 [Compound 262]
 |  | 8 |  | 58.1 | 3.878 | 0 |  | O=C(NCCCN1CCCC1)c1ccc(-n2c(=O)ccc3cnc4ccc(-c5ccc(F)cc5)cc4c32)cc1 [Compound 267]
 |  |  |  | 58 | 7.119 | 3.4 | 1180 | Cc1cc(C(=O)NC2CC2)ccc1-n1c(=O)ccc2cnc3ccc(-c4ccc(F)cc4)cc3c21 [Compound 223]
 |  | 1.7 |  | 60 | 1.871 | 0 |  | O=C(NCCCN1CCS(=O)(=O)CC1)c1ccc(-n2c(=O)ccc3cnc4ccc(-c5ccc(Cl)cc5)cc4c32)cc1 [Compound 261]
2960 | 31 ×10^6 cm/s | 23 | <1 |  |  |  |  | O=C1NC(=O)c2cc(-n3c(=O)ccc4cnc5ccc(-c6ccc(Cl)cc6)cc5c43)ccc21 [Compound 379]
 |  | >30 |  | 58.8 | 1.512 | 0 |  | O=C(NC1CCN(CCO)CC1)c1ccc(-n2c(=O)ccc3cnc4ccc(-c5ccc(Cl)cc5)cc4c32)cc1 [Compound 263]
 |  | 8.4 |  | 2050 | 4.586 | 0 |  | O=C(c1ccc(-n2c(=O)ccc3c(O)nc4ccc(-c5ccc(Cl)cc5)cc4c32)cc1)N1CCOCC1 [Compound 294]
 | 21 ×10^6 cm/s | 9.6 | <1 |  |  |  |  | Cc1cc(N2CCNCC2)c(C#N)cc1-n1c(=O)ccc2cnc3ccc(-c4ccc(Cl)cc4)cc3c21 [Compound 11]
56.6 | 133.5 ×10^6 cm/s | >30 | 2 |  |  |  |  | CN(C)CCOc1ccc(-c2ccc3ncc4ccc(=O)n(-c5ccc(S(C)(=O)=O)cc5)c4c3c2)cc1 [Compound 71]
288 | 439.2 ×10^6 cm/s | >30 | 61 |  |  |  |  | CS(=O)(=O)c1ccc(-n2c(=O)ccc3cnc4ccc(-c5ccc(CN6CCCC6)cc5)cc4c32)cc1 [Compound 33]
